Assay results published in a compilation of properties of binary mixtures (doi:10.1016/j.molliq.2020.114573).

Test: xn = mol fraction of the nth substance listed
Settings: 101.3 kPa

CC1COC(=O)O1 (configuration not stated) + CC[n+]1ccn(C)c1C.O=S(=O)([N-]S(=O)(=O)C(F)(F)F)C(F)(F)F
x2 = 0
Settings | viscosity [mPa·s]
293.15 K | 2.746
298.15 K | 2.476
303.15 K | 2.246
313.15 K | 1.879
318.15 K | 1.73
323.15 K | 1.6
328.15 K | 1.486
333.15 K | 1.385
338.15 K | 1.294
343.15 K | 1.213

CCCCn1cc[n+](C)c1C.O=S(=O)([N-]S(=O)(=O)C(F)(F)F)C(F)(F)F + CC1COC(=O)O1
viscosity [mPa·s]
Settings | x1 = 0.0902 | x1 = 0.193 | x1 = 0.2934 | x1 = 0.4039 | x1 = 0.4996 | x1 = 0.6034 | x1 = 0.6989 | x1 = 0.8107 | x1 = 0.8987 | x1 = 1
288.15 K | 5.24 | 9.07 | 14.94 | 24.89 | 37.46 | 54.7 | – | 104.9 | 137 | 178.8
293.15 K | – | 7.79 | 12.54 | 20.44 | 30.16 | – | 59.4 | 80.2 | 103.2 | 132.9
298.15 K | 4.073 | 6.76 | 10.65 | – | 24.69 | 34.79 | 47.12 | 62.7 | 79.6 | 101.1
303.15 K | 3.637 | – | 9.15 | 14.34 | – | 28.47 | 38.01 | – | 62.6 | –
308.15 K | 3.272 | – | 7.95 | 12.21 | 17.68 | 23.64 | 31.16 | – | 50.2 | 62.2
313.15 K | – | 4.661 | 6.97 | – | 15.21 | 19.88 | 25.91 | 33.28 | 40.89 | –
318.15 K | 2.693 | – | – | 9.16 | – | 17.36 | 21.81 | – | 33.77 | –
323.15 K | 2.463 | 3.77 | 5.49 | 8.04 | 11.16 | 15.04 | 18.72 | 23.39 | 28.28 | 34.04
328.15 K | – | 3.421 | 4.92 | 7.12 | 9.65 | 12.98 | 16.46 | 19.94 | 23.94 | 28.58
333.15 K | 2.088 | 3.121 | 4.439 | 6.34 | 8.42 | 11.22 | 14.32 | – | 20.47 | –
338.15 K | 1.933 | 2.86 | – | 5.69 | – | 9.78 | 12.45 | 15.42 | 17.95 | 20.79
343.15 K | 1.796 | 2.633 | 3.671 | 5.13 | – | – | 10.85 | 13.47 | 15.87 | 18.12
348.15 K | 1.675 | 2.433 | 3.363 | 4.658 | 5.82 | 7.58 | 9.51 | 11.82 | 13.95 | 16.01

CC[n+]1ccn(C)c1C.O=S(=O)([N-]S(=O)(=O)C(F)(F)F)C(F)(F)F + CC1COC(=O)O1
viscosity [mPa·s]
Settings | x1 = 0.1025 | x1 = 0.203 | x1 = 0.3078 | x1 = 0.3994 | x1 = 0.5149 | x1 = 0.5825 | x1 = 0.7004 | x1 = 0.8032 | x1 = 0.8903 | x1 = 1
293.15 K | 4.428 | 6.93 | 10.56 | 14.82 | 23.06 | 28.58 | 40.63 | 54.1 | 67.4 | 88.1
298.15 K | 3.939 | 6.07 | 9.11 | 12.62 | 19.36 | 23.79 | 33.34 | 43.9 | 54.2 | 69.8
303.15 K | 3.529 | – | 7.94 | 10.86 | 16.94 | – | 27.76 | 36.2 | 44.35 | 56.4
308.15 K | 3.181 | 4.77 | 6.98 | 9.45 | 14.61 | 17.55 | 23.4 | 30.24 | 36.77 | 46.1
313.15 K | 2.886 | 4.278 | 6.18 | 8.29 | 12.57 | 15.29 | – | 25.57 | 30.87 | 38.26
318.15 K | 2.631 | 3.864 | 5.52 | – | – | 13.22 | 17.6 | – | 26.2 | 32.15
323.15 K | – | 3.506 | 4.96 | 6.54 | – | 11.45 | – | 18.92 | 22.48 | 27.31
328.15 K | 2.218 | – | 4.485 | 5.86 | 8.27 | 9.99 | 13.53 | – | 19.46 | 23.43
333.15 K | 2.05 | 2.932 | 4.078 | – | 7.31 | 8.77 | 11.81 | 14.88 | 17.38 | 20.28
338.15 K | 1.901 | 2.699 | – | 4.8 | 6.49 | 7.77 | 10.37 | 13.07 | 15.46 | 17.69
343.15 K | 1.769 | 2.494 | 3.419 | – | 5.82 | – | 9.15 | 11.54 | – | 15.62
348.15 K | – | 2.312 | 3.149 | 4.011 | 5.23 | 6.15 | – | 10.17 | 12.07 | 13.94

CC1COC(=O)O1 (configuration not stated) + FC(S(=O)(=O)[N-]S(=O)(=O)C(F)(F)F)(F)F.C(CCC)N1C(=[N+](C=C1)C)C
x2 = 0
Settings | viscosity [mPa·s]
298.15 K | 2.476
303.15 K | 2.246
308.15 K | 2.049
313.15 K | 1.879
318.15 K | 1.73
323.15 K | 1.6
328.15 K | 1.486
333.15 K | 1.385
338.15 K | 1.294
348.15 K | 1.14
